Reference: patent publication US8552064B2, “Suramin and derivatives thereof as topical microbicide and contraceptive” (Eastern Virginia Medical School, priority 2005, dated 2013)
≈ marks a conversion by molar mass, not a printed value.

Assays:
HIV-1 clinical isolates = test: Clinical isolates in PBMC assay; format: cell-based
Method: Peripheral blood mononuclear cells (PBMCs) were obtained from normal hepatitis and HIV-1 negative donors by ficoll hypaque gradient separation. Briefly, anti-coagulated blood is diluted 1:1 with Dulbecco's phosphate buffered saline without Ca^++ and Mg^++ (PBS) and layered over 14 mL of Lymphocyte separation media in a 50 ml centrifuge tube. Tubes were then centrifuged for 30 minutes at 600×g. Banded PBMCs were gently aspirated from the resulting interface and subsequently washed 2× with PBS by low speed centrifugation. The mononuclear cells were counted, viability was determined by Trypan Blue dye exclusion and the cells were resuspended in RPMI 1640 medium supplemented with 15% FBS (heat inactivated), 2 mM L-glutamine, 100 U/mL penicillin, 100 μg/mL streptomycin, and 10 μg/mL gentamycin with 20 U/mL recombinant IL-2 (R&D Systems, Minneapolis, Minn.). […]
Human peripheral blood mononuclear cells from a minimum of two donors, that have been stimulated with PHS- and IL-2, were counted and their viability was determined by Trypan Blue dye exclusion and mixed in equal rations. Pooled donors were used to minimize the variability observed between individual donors, which results from quantitative and qualitative differences in HIV infection, and overall response to the PHA and IL-2 of primary lymphocyte populations. […]

Neisseria gonorrhoeae = test: Gonococcal growth inhibition (multiplication assay); format: cell-based
Method: Gonococcal growth inhibition assays were performed by the method of Anderson R. A., et al., J. Androl., 21: 862-875; 2000. Briefly, Neisseria gonorrhea from local uncomplicated cases of gonorrhea were isolated (verified by Gram stain, oxidase reactivity and sugar fermentation). The titer of log-phase cultures were adjusted by dilution in GC broth to 0.5 McFarland standard (approximately 10^8 colony forming units per ml). This was diluted 1:10 with broth that contained no additions (control), and each of serial 1:10 dilutions of test agent, ranging from 1 mg/ml to 1.0 μg/ml. The cultures were incubated at 37° C. for four hours. Four serial 1:10 dilutions were made in GC broth, and a portion of each dilution was inoculated onto GC agar plates. The plates were incubated overnight, and resultant gonococcal colonies were counted under bright-field microscopy. Data for each concentration of suramin were expressed as the number of colony-forming units (CFU) per ml of the original log-phase bacterial suspension.

HSV-2 = test: HSV plaque assay, HSV-2; format: cell-based, HSV (type 2 strain 333)
Method: Evaluation of anti-HSV activity of suramin was based on the method described by Herold et al., J. Virol., 70: 3461-3469 (1996). The compound was serially diluted (1000 μg/ml to 1.0 μg/ml) in phosphate-buffered saline (PBS), and each dilution was mixed with each of two serial dilutions (10^−5 and 10^−6) HSV (type 2 strain 333). Working viral titers were […]. Samples (1 ml) of each mixture were plated in duplicate on washed and drained confluent monolayers of CaSki cells (a human cervical epithelial cell line, obtained from the American Type Culture Collection, Rockville, Md.) on the bottoms of 25 cm^2 flasks. Initial titer (indicated in the control cultures with no added test agent) in each culture was given as pfu/ml. The flasks were incubated for 2 hours, after which the medium (containing virus and test compound) was removed and the cells were washed with PBS. Cells were cultured for 3 days in medium 199, supplemented with 1% serum and 0.5% methyl cellulose that contained anti-HSV antibodies to prevent the formation of secondary plaques. Cells were stained with Giemsa for the counting of viral plaques by phase contrast microscopy. The viral titer was inferred from the number of plaques, after correction for dilutions. Values were corrected to a control titer 5×10^8 pfu/ml. Data were expressed as viral titer and as the percentage of plaques that are counted in control cell cultures (not exposed to test agent). […] The concentration of the compound that was required to reduce the viral titer by 50% (IC50) was estimated with curve-fitting software (TableCurve 2D, version 3.02) from plots of plaque-forming units (pfu) per ml as a function of concentration of the compound.

For `Cc1ccc(C(=O)Nc2ccc(S(=O)(=O)O)c3cc(S(=O)(=O)O)cc(S(=O)(=O)O)c23)cc1NC(=O)c1cccc(NC(=O)Nc2cccc(C(=O)Nc3cc(C(=O)Nc4ccc(S(=O)(=O)O)c5cc(S(=O)(=O)O)cc(S(=O)(=O)O)c45)ccc3C)c2)c1` [Suramin, 8,8′-(carbonylbis(imino-3,1-phenylenecarbonylimino(4-methyl-3,1-phenylene)carbonylimino))bis-1,3,5-naphthalene trisulfonic acid], the “Potency, HIV-1 Clin Isolates” value (HIV-1 clinical isolates) was “High”, the IC50 (HIV-1 clinical isolates; Human immunodeficiency virus 1, PBMC, read-out: IC50 Clin Isolates) was 14.6 µg/mL (≈ 11.3 µM) and the “Potency, Gonococcus (GC) Multiplication” value (Neisseria gonorrhoeae) was “Moderate”. The “inhibition of GC growth (multiplication assay)” value (Neisseria gonorrhoeae; 1 mg/mL) was “completely inhibited GC growth”, the “dose-response of GC growth” value (Neisseria gonorrhoeae; 1-1000 μg/mL) was “no clear dose-response” and the inhibition at 1000 µg/mL (Neisseria gonorrhoeae; Neisseria gonorrhoeae, 1 mg/mL, read-out: inhibition of GC multiplication) was 100%. For the same compound, the “Potency, HSV-2 Plaque” value (HSV-2) was “High”, the inhibition at 100 µg/mL (HSV-2; Human alphaherpesvirus 2, 100 μg/mL, read-out: inhibition of viral infectivity, plaque assay) was 100% and the IC50 (HSV-2; Human alphaherpesvirus 2, read-out: IC50 against HSV-2) was 1 µg/mL (≈ 0.771 µM).
